How the values were obtained:
BV2 cells = assay: BV2 cell proliferation assay (CCK-8); format: cell-based; details: Mus musculus, BV-2, 48 h treatment, CCK-8, top concentration 33.3 μM, mean pIC50 of multiple test results, read-out: BV2 Profileration pIC50 (converted)
Source text: (§1) The assay measures the ability of a compound to inhibit cell proliferation using Cell Counting Kit-8 (CCK-8), which allows sensitive colorimetric assays for the determination of cell viability in cell proliferation and cytotoxicity assays. The highly water-soluble tetrazolium salt, WST-8, is reduced by dehydrogenase activities in cells to give a yellow-color formazan dye, which is soluble in the tissue culture media. The amount of the formazan dye, generated by the activities of dehydrogenases in cells, is directly proportional to the number of living cells.
(§2) The assay was performed based on the instruction of the manufacturer (Dojindo Molecular Technologies Inc., Rockville, MD, USA). To start the assay, BV2 cells were seeded at a density of […] into 96-well plates and treated with test compounds, which were used at a top final assay concentration of 33.3 μM, diluted in assay medium with 1:3 dilutions to produce 10 point concentration responses, for 48 h. After incubation, the CCK-8 solution (10 μl) was added to each well of the plate and the plates were incubated in incubator at 37° C. for 3 h. Absorbance was recorded three times independently using a microplate reader (Bio-Rad Laboratories, Richmond, CA, USA) at 450 nm.
Selected examples were tested in the BV2 cell proliferation. The data mentioned below represents a mean pIC50 value of multiple test results. It is understood that the data illustrated below may have reasonable variation depending on the specific conditions and procedures used by the person conducting the testing.

U251 cell = U251 cell proliferation assay (CCK-8); format: cell-based; details: Homo sapiens, U-251; U251 cells; read-out: U251 Profileration pIC50 (converted)
Source text: [The source words this procedure for another cell line and reports this cell line under the same test.] as §1, §2

MIF = MIF (Homo sapiens (Human), UniProt P14174); assay: MIF tautomerase assay using pHPP as substrate; format: biochemical; details: cell-free, pHPP substrate 1.5 mM, MIF 3 nM; mean pIC50 of multiple test results
Protocol: Tautomerase Assay Using pHPP as substrate
This assay measured MIF's tautomerase activity in a cell-free system and was based on the determination of initial rates of the MIF-catalyzed conversion of the ketonic into the enolic tautomer of pHPP. This was achieved by spectrophotometric quantification of the complex between borate and the product of the reaction (enolic pHPP). The substrate was prepared by conversion of the enolic pHPP into its ketonic form. To achieve this, 0.5 M pHPP in methanol was diluted 10-fold with 50 mM sodium acetate buffer at pH 6.0, and then the suspension was shaken for 24 h at room temperature in darkness, and finally stored at 4° C. for not more than 1 week, with 5 min sonication being recommended before use.
Assays were performed in small-volume clear-bottom black 96 or 384-well polystyrene plates (Greiner Bio-One). First, 2 μL of the enzyme solution containing 6 nM of MIF in DPBS, 0.025% w/v BSA, and 300 μM CHAPS was dispensed onto sample and negative control wells using Multidrop Combi with metallic tip cassettes (Thermo Fisher Scientific) previously treated with Sigmacote. Then, 2 μL of the same buffer without MIF was dispensed onto positive control wells. The reaction was started by addition of the following to all wells: 2 μL of substrate solution containing 3 mM ketonic pHPP in 200 mM boric acid, 25 mM sodium phosphate, 0.025% w/v BSA, and 300 μM CHAPS at pH 6.0. In order to remove bubbles, the plate was centrifuged in an Allegra 25R centrifuge (Beckman Coulter, Inc., Brea, CA) at 1000 rpm for 2 min at room temperature. Then, the plate was read in an EnVision. Final concentrations of enzyme and substrate were 3 nM and 1.5 mM, respectively. Initial rates were calculated for each well as the slope of the absorbance progress curve.
The data mentioned below represents a mean pIC50 value of multiple test results. It is understood that the data illustrated below may have reasonable variation depending on the specific conditions and procedures used by the person conducting the testing.

Chain of MIF (P14174 2-115): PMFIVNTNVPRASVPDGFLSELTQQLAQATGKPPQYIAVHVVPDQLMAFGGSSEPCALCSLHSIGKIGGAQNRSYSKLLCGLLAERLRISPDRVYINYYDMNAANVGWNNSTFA

Row | Compound | IC50 (BV2 cells) | IC50 (U251 cell) | Tautomerase Inhibition pIC50 (MIF)
1 | COc1cc(OCCN2CCOCC2)ccc1C(=O)NCc1nnc(-c2cccs2)o1 [Compound 69, 2-methoxy-4-(2-morpholinoethoxy)-N-((5-(thiophen-2-yl)-1,3,4-oxadiazol-2-yl)methyl)benzamide] | 44.7 µM | > 1000 µM | –
2 | COc1cc(OCCO)ccc1C(=O)Nc1nnc(-c2cccs2)o1 [Compound 17, 4-(2-hydroxyethoxy)-2-methoxy-N-(5-(thiophen-2-yl)-1,3,4-oxadiazol-2-yl)benzamide] | 11.5 µM | > 1000 µM | 7.98
3 | COc1cc(N2CCOCC2)ccc1C(=O)NCc1nnc(-c2ccccc2)o1 [Compound 63, 2-methoxy-4-morpholino-N-((5-phenyl-1,3,4-oxadiazol-2-yl)methyl)benzamide] | 21.4 µM | > 1000 µM | <5
4 | COc1cc(OC2CCN(C)C2)ccc1C(=O)NCc1nnc(-c2cccs2)o1 (stereo not drawn) [Compound 82, 2-methoxy-4-((1-methylpyrrolidin-3-yl)oxy)-N-((5-(thiophen-2-yl)-1,3,4-oxadiazol-2-yl)methyl)benzamide] | > 1000 µM | > 1000 µM | 5.53
5 | COc1cc(NCCO)ccc1C(=O)NCc1nnc(-c2cccs2)o1 [Compound 79, 4-((2-hydroxyethyl)amino)-2-methoxy-N-((5-(thiophen-2-yl)-1,3,4-oxadiazol-2-yl)methyl)benzamide] | > 1000 µM | > 1000 µM | –
6 | COc1cc(N2CCCCC2)ccc1C(=O)NCc1nnc(-c2cccs2)o1 [Compound 56, 2-methoxy-4-(piperidin-1-yl)-N-((5-(thiophen-2-yl)-1,3,4-oxadiazol-2-yl)methyl)benzamide] | 16.2 µM | > 1000 µM | 6.13
7 | COc1cc(N2CCC(O)C2)ccc1C(=O)NCc1nnc(-c2cccs2)o1 (stereo not drawn) [Compound 78, 4-(3-hydroxypyrrolidin-1-yl)-2-methoxy-N-((5-(thiophen-2-yl)-1,3,4-oxadiazol-2-yl)methyl)benzamide] | 79.4 µM | > 1000 µM | –
8 | COc1cc(N2CCOCC2)ccc1C(=O)NCc1nnc(-c2cccs2)o1 [Compound 51, 2-methoxy-4-morpholino-N-((5-(thiophen-2-yl)-1,3,4-oxadiazol-2-yl)methyl)benzamide] | 13.2 µM | > 1000 µM | 6.29
9 | COc1cc(CC(C)(C)O)ccc1C(=O)NCc1nnc(-c2cccs2)o1 [Compound 84, 4-(2-hydroxy-2-methylpropyl)-2-methoxy-N-((5-(thiophen-2-yl)-1,3,4-oxadiazol-2-yl)methyl)benzamide] | 41.7 µM | > 1000 µM | 6.04
10 | COc1cc(NC2CCN(C)C2)ccc1C(=O)NCc1nnc(-c2cccs2)o1 (stereo not drawn) [Compound 76, 2-methoxy-4-((1-methylpyrrolidin-3-yl)amino)-N-((5-(thiophen-2-yl)-1,3,4-oxadiazol-2-yl)methyl)benzamide] | > 1000 µM | > 1000 µM | 1.77
11 | O=C(NCc1nnc(-c2cccs2)o1)c1ccccc1F [Compound 44, 2-fluoro-N-((5-(thiophen-2-yl)-1,3,4-oxadiazol-2-yl)methyl)benzamide] | 45.7 µM | > 1000 µM | <5
12 | COc1cc(OCC(=O)O)ccc1C(=O)Nc1nnc(-c2cccs2)o1 [Compound 19, 2-(3-methoxy-4-((5-(thiophen-2-yl)-1,3,4-oxadiazol-2-yl)carbamoyl)phenoxy)acetic acid] | > 1000 µM | > 1000 µM | –
13 | COc1cc(OCc2nn[nH]n2)ccc1C(=O)Nc1nnc(-c2cccs2)o1 [Compound 22, 4-((2H-tetrazol-5-yl)methoxy)-2-methoxy-N-(5-(thiophen-2-yl)-1,3,4-oxadiazol-2-yl)benzamide] | > 1000 µM | > 1000 µM | 7.91
14 | COc1cc(N2CCNCC2)ccc1C(=O)NCc1nnc(-c2cccs2)o1 [Compound 58, 2-methoxy-4-(piperazin-1-yl)-N-((5-(thiophen-2-yl)-1,3,4-oxadiazol-2-yl)methyl)benzamide] | 35.5 µM | > 1000 µM | 5.95
15 | COc1cc(N2CCOCC2)ccc1C(=O)N(C)c1nnc(-c2cncs2)o1 [Compound 36, 2-methoxy-N-methyl-4-morpholino-N-(5-(thiazol-5-yl)-1,3,4-oxadiazol-2-yl)benzamide] | – | – | <5
16 | COc1cc(N2CCOCC2)ccc1C(=O)N(C)C(C)(C)c1nnc(-c2cccs2)o1 [Compound 68, 2-methoxy-N-methyl-4-morpholino-N-(2-(5-(thiophen-2-yl)-1,3,4-oxadiazol-2-yl)propan-2-yl)benzamide] | – | – | 3.23
17 | COc1cc(OC(C)(C)C(=O)O)ccc1C(=O)Nc1nnc(-c2cccs2)o1 [Compound 21, 2-(3-methoxy-4-((5-(thiophen-2-yl)-1,3,4-oxadiazol-2-yl)carbamoyl)phenoxy)-2-methyl propanoic acid] | > 1000 µM | > 1000 µM | –
18 | COc1cc(N2CCOCC2)ccc1C(=O)NC(C)(C)c1nnc(-c2cccs2)o1 [Compound 65, 2-methoxy-4-morpholino-N-(2-(5-(thiophen-2-yl)-1,3,4-oxadiazol-2-yl)propan-2-yl)benzamide] | – | – | <5
19 | COc1c(C(=O)NCc2nnc(-c3cccs3)o2)cccc1N1CCOCC1 [Compound 54, 2-methoxy-3-morpholino-N-((5-(thiophen-2-yl)-1,3,4-oxadiazol-2-yl)methyl)benzamide] | – | – | <5
20 | COc1ccc(C(=O)Nc2nnc(-c3ccco3)o2)c(Cl)c1 [Compound 1, 2-chloro-N-(5-(furan-2-yl)-1,3,4-oxadiazol-2-yl)-4-methoxybenzamide] | – | – | <5
21 | COc1cc(OCCO)ccc1C(=O)NCc1nnc(-c2cccs2)o1 [Compound 70, 4-(2-hydroxyethoxy)-2-methoxy-N-((5-(thiophen-2-yl)-1,3,4-oxadiazol-2-yl)methyl)benzamide] | – | – | 6.12
22 | CNCCOc1ccc(C(=O)NCc2nnc(-c3cccs3)o2)c(OC)c1 [Compound 80, 2-methoxy-4-(2-(methylamino)ethoxy)-N-((5-(thiophen-2-yl)-1,3,4-oxadiazol-2-yl)methyl)benzamide] | 26.3 µM | > 1000 µM | –
23 | COc1cc(OC2CCNC2)ccc1C(=O)NCc1nnc(-c2cccs2)o1 (stereo not drawn) [Compound 81, 2-methoxy-4-(pyrrolidin-3-yloxy)-N-((5-(thiophen-2-yl)-1,3,4-oxadiazol-2-yl)methyl)benzamide] | > 1000 µM | 35.5 µM | –
24 | COc1cc(C(C)(C)O)ccc1C(=O)NCc1nnc(-c2cccs2)o1 [Compound 83, 4-(2-hydroxypropan-2-yl)-2-methoxy-N-((5-(thiophen-2-yl)-1,3,4-oxadiazol-2-yl)methyl)benzamide] | > 1000 µM | > 1000 µM | –
25 | CN1CCC(C(=O)NCc2nnc(-c3cccs3)o2)CC1 [Compound 50, 1-methyl-N-((5-(thiophen-2-yl)-1,3,4-oxadiazol-2-yl)methyl)piperidine-4-carboxamide] | – | – | <5
26 | O=C(NCc1nnc(-c2cccs2)o1)C1CCCCC1 [Compound 49, N-((5-(thiophen-2-yl)-1,3,4-oxadiazol-2-yl)methyl)cyclohexanecarboxamide] | – | – | <5
